The COVID Moonshot data (paper PMC11187573), “Identification of SARS-CoV-2 Mpro inhibitors through deep reinforcement learning for de novo drug design and computational chemistry approaches” (RSC Medicinal Chemistry, 2024)

What was measured:
[1] = target: SARS-CoV-2 Main Protease (SARS-CoV-2) (UniProt P0DTD1)
[2] = target: SARS-CoV-2 Main Protease (SARS-CoV-2) (UniProt P0DTD1); remark: listed apart in the source

Row | SMILES | inhibition ([1]; 50.0 µM) | inhibition ([2]; 20.0 µM) | inhibition ([2]; 50.0 µM) | relative solubility at 20 uM | relative solubility at 100 uM | inhibition ([1]; 20.0 µM) | IC50 [2]
1 | COc1cc(CNC(=O)Cc2ncc[nH]2)c2ccccc2n1 | -23.1% | 0% | 15.6% | 1 | 1 | – | –
2 | C=CC(=O)N(c1ccc(N(C)C)c(C)c1)C(C(=O)Nc1ccc(Br)cc1)c1cccnc1 (stereo not given) | 3.43% | 0% | – | 0.84 | 0.74 | 3.45% | –
3 | CCC(=O)NCC[C@@H]1CCc2ccc3c(c21)CCO3 (stereo in doubt) | 6.69% | 0% | – | 1 | 1 | 0.473% | –
4 | N#Cc1cccc(NC(=O)Nc2cccnc2)c1 | 10.3% | 0% | – | 1 | 1 | 6.21% | –
5 | C=CC(=O)N(c1ccc(C(C)(C)C)cc1)C(C(=O)NCC)c1cccnc1 (stereo not given) | 50.2% | 52.6% | 100% | 0.99 | 1 | 57% | 19.4 µM
6 | C=CC(=O)N(c1ccc(C(C)OC)cc1)C(C(=O)Nc1ccccc1Br)c1cccnc1 (stereo not given) | 9.73% | 0% | – | 0.89 | 0.84 | 3.04% | –
7 | O=C(CCl)N1CCN(Cc2cc(O)ccc2O)CC1 | 74.5% | 63.9% | 89.9% | 0.99 | 0.99 | 57.4% | 9.28 µM
8 | CN(C(=O)C1CCOc2ccc(Cl)cc21)c1ccc(Cl)cn1 (stereo not given) | 9.88% | – | 0% | 0.99 | 0.98 | 0.542% | –
9 | O=C(CC(=O)N1CCOCC1)NC1CCCCC1 | 6.01% | 0% | 0% | 0.99 | 1 | 19.8% | –
10 | Cc1cccc(NC(=O)C(C#N)C(=O)C2CCC2)c1 (stereo not given) | 1.6% | 0.951% | 0% | 0.99 | 0.99 | – | –
11 | O=C(CCNC(=O)c1c[nH]c2ccccc12)Nc1ccc(-n2cnc3ccccc32)cc1 | 8.08% | – | 43.9% | 0.82 | 0.54 | -3.48% | –
12 | NS(=O)(=O)c1ccc(N2CCC(N3CCCCCC3)CC2)cc1 | 0.117% | – | 100% | 1 | 1 | -1.25% | 15.8 µM
13 | O=C1CC[C@H](C(=O)Nc2cccc(Br)c2)N1 (stereo in doubt) | 5.83% | – | 0% | 1 | 1 | 15% | –
14 | C=CC(=O)N(c1ccc(SC)cc1)C(C(=O)Nc1ccc(Cl)cc1)c1cccnc1 (stereo not given) | 32.3% | 9.4% | – | 0.81 | 0.64 | 16.9% | –
15 | Cc1ccncc1NC(=O)C1(c2cccc(Cl)c2)CC1 | 61.6% | – | 43.3% | 1.01 | 1 | 38.4% | –
16 | Cc1ccc(NC(=O)Nc2cccnc2)s1 | 11.3% | 2.62% | 28.6% | 1 | 0.96 | 1.9% | –
17 | O=C1C(=O)N(Cc2ccccc2)c2cc(Br)ccc21 | -0.164% | – | 0% | 0.99 | 0.59 | 0.852% | –
18 | C=CC(=O)N(C1CCC2(CCCC2)C1)C(C(=O)NC(C)(C)C)c1cccnc1 (stereo not given) | 6.35% | 0% | – | 0.98 | 0.99 | 5.22% | –
19 | CC(=O)NCc1cccc(NC(=O)Cc2cncnc2)c1 | 6.22% | – | 0% | 1.01 | 1 | 3.15% | –

Row | SMILES | inhibition ([1]; 50.0 µM) | inhibition ([2]; 20.0 µM) | inhibition ([2]; 50.0 µM) | relative solubility at 20 uM | relative solubility at 100 uM | inhibition ([1]; 20.0 µM) | IC50 [2]
20 | C=CC(=O)N(c1ccc(C(C)OC)cc1)C(C(=O)Nc1ccc(OC)cc1C)c1cccnc1 (stereo not given) | 6.9% | 0% | – | 0.99 | 0.97 | 2.91% | –
21 | Cc1cccc(CS(=O)(=O)N2CCC(C(N)=O)CC2)c1 | 0.138% | – | 0% | 1.01 | 1.01 | -20.4% | –
22 | C=CC(=O)N(c1ccc(S(F)(F)(F)(F)F)cc1)C(C(=O)NC(C)(C)C)c1cccnc1 (stereo not given) | 23% | 6.54% | – | 0.98 | 0.9 | 11.1% | –
23 | C=CC(=O)N(c1ccc(C(C)(C)C)cc1)C(C(=O)NC1CC1)c1cccnc1 (stereo not given) | 33% | 8.67% | 33.3% | 1.01 | 1 | 25.4% | –
24 | O=C(Cc1cccnc1Cl)Nc1cccc(OCCc2ccccc2)c1 | 6.9% | 0% | 5.03% | 0.81 | 0.27 | 1.54% | –
25 | O=C(Cc1cc(Cl)cc(Cl)c1)Nc1nncs1 | -0.821% | – | 0% | 0.84 | 0.7 | 13.9% | –
26 | N#Cc1ccc(CNC(=O)Cc2c[nH]c3ncccc23)cc1 | 1.71% | 1.12% | – | 1 | 0.99 | 2.44% | –
27 | COC(=O)C(Cc1ccccc1)C(C)NC(=O)C(C)n1ccnc1 (stereo not given) | 11.9% | 0% | 0% | 1 | 1 | – | –
28 | O=C(Cc1ccc(F)cc1)Nc1cccc2cc[nH]c12 | -33.9% | – | 0% | 1 | 0.88 | -2.43% | –
29 | COc1c(NC(=O)Cc2cccc(Cl)c2Cl)c(C)nn1C | 2.19% | – | 0% | 1 | 1.01 | 2.78% | –
30 | O=C(NCCN1CCN(c2ccccc2)CC1)NCc1ccccn1 | 12.5% | 0% | 0% | 0.99 | 0.99 | – | –
31 | CC(C)[C@@H](C#N)NS(=O)(=O)c1ccc(CF)cc1 (stereo in doubt) | -14% | 1.55% | 22.1% | 1 | 1 | – | –
32 | C=CC(=O)N(c1ccc(C(C)(C)C)cc1)C(C(=O)NCCC(=O)OCC)c1cccnc1 (stereo not given) | 46.3% | 12.3% | 43.7% | 0.99 | 0.97 | 27.8% | –
33 | C=CC(=O)N(c1ccc(C2(C)CC2)cc1)C(C(=O)Nc1cccc(F)c1C)c1cccnc1 (stereo not given) | 34.7% | 0% | 1.04% | 1 | 1 | – | –
34 | Cc1ccncc1NC(=O)Cc1cccc(CO)c1 | 6.05% | – | 1.14% | 1 | 1 | 2.87% | –
35 | Cc1ccncc1NC(=O)C(C)c1cccc(Cl)c1 (stereo not given) | 78.7% | 20.4% | – | 1 | 1 | 58% | 13 µM
36 | N#CCN1CCN(Cc2cc(Cl)cc3ccccc23)CC1 | 5.55% | 10.4% | 10.2% | 0.91 | 0.92 | – | –
37 | O=C(Cc1cccc(Cl)c1)Nn1cnc2ccccc21 | 87.7% | – | 45.3% | 1 | 1 | 74.2% | 4.27 µM
38 | Cc1noc(C)c1COc1ccccc1C(=O)NC(C)c1nnc2ncccn12 (stereo not given) | 8.28% | 0% | 18.5% | 0.99 | 0.94 | 2.22% | –

Row | SMILES | inhibition ([1]; 50.0 µM) | inhibition ([2]; 20.0 µM) | inhibition ([2]; 50.0 µM) | relative solubility at 20 uM | relative solubility at 100 uM | inhibition ([1]; 20.0 µM) | IC50 [2]
39 | C=CC(=O)N(c1ccc2ncsc2c1)C(C(=O)Nc1ccc(Br)cc1)c1cccnc1 (stereo not given) | 34.9% | 3.05% | – | 0.75 | 0.64 | 17.4% | –
40 | CCc1ccccc1Nc1nc(N)nc(CSc2nnc3ccccn23)n1 | 46.6% | -0.805% | 3.37% | 0.99 | 0.95 | 20.9% | –
41 | C=CC(=O)N1CCN(C(=O)c2cccc(Cl)c2)CC1 | 5.55% | 0% | 0% | 0.99 | 0.99 | – | –
42 | O=C(Cc1c[nH]c2ncccc12)NCc1ccc(Cl)cc1 | 3.45% | 0% | – | 1 | 0.95 | 2.99% | –
43 | COc1ccc2[nH]cc(CCNC(C)=O)c2c1 | -0.962% | 0% | – | 1 | 0.99 | 1.37% | –
44 | Cc1ccc(S(=O)(=O)N2CCN(C(=O)c3cc(=O)[nH]c4cc(F)ccc34)CC2)c(C)c1 | 48.1% | – | 11.4% | 1 | 0.92 | 21.8% | –
45 | CC(=O)N[C@@H](C)C(=O)Nc1cnccc1C (stereo in doubt) | -7.91% | – | -0.127% | 1 | 1 | -12.3% | –
46 | O=C1Nc2cc(Br)ccc2C1=O | -4.62% | – | 23.8% | 1 | 1.01 | -5.86% | –
47 | CN(C(=O)Cc1noc2ccccc12)c1ccc(NC(=O)OC(C)(C)C)cc1 | -11.9% | 0% | – | 0.98 | 0.7 | -14.5% | –
48 | O=C(c1ccccc1)N1CCN(C(=O)c2nn(-c3ccccc3C(F)(F)F)cc2O)CC1 | -1.44% | – | 0% | 0.99 | 0.95 | -48% | –
49 | Cc1noc(C)c1CS(=O)(=O)Cc1cccc(Cl)c1 | -0.0149% | – | 0% | 0.99 | 1 | 1.07% | –
50 | N#Cc1ccc(O)c(NC(=O)Cc2cccnc2)c1 | -8.48% | – | 0% | 1 | 0.95 | -15.4% | –
51 | O=C(Cc1cccnc1Br)Nc1cccc(OCCn2cncn2)c1 | -21.7% | 0% | 0% | 1 | 1 | – | –
52 | C=CC(=O)N(c1ccc(C2(C)CC2)cc1)C(C(=O)Nc1cccc(CC)c1)c1cccnc1 (stereo not given) | 21% | 4.53% | 47.2% | 0.86 | 0.65 | – | –
53 | O=S(=O)(CCc1ccccc1)Nc1cccnc1 | -32.5% | – | 17.2% | 0.98 | 0.99 | -0.803% | –
54 | C=CC(=O)N(c1ccc(C(F)(F)F)cc1)C(C(=O)NCCc1cccc(F)c1)c1cncc(C)c1 (stereo not given) | 63% | – | 91.6% | 0.91 | 0.73 | 38.8% | 7.72 µM
55 | Cc1ccc(NC(=O)C(C#N)C(=O)CC(C)C)cc1 (stereo not given) | 21.5% | 3.11% | 0% | 0.99 | 1 | – | –
56 | O=C(Nc1nnc(-c2ccccn2)o1)C1CCN(S(=O)(=O)c2ccc(F)cc2)CC1 | -71% | – | 0% | 0.95 | 0.96 | 3.87% | –
